Source: patent US11505581B2, “Antigens and T cell epitopes from cockroach and methods of making and using same” (La Jolla Institute for Allergy and Immunology, priority 2015, dated 2022)

Each sequence was assayed on PBMC (assay: ELISPOT (IFNγ, IL-5, IL-10, IL-17, IL-21) of PBMC expanded 14 days with Bla g extract, then stimulated with peptides or peptide pools). Conditions: non-redundant epitopes; sensitized donors.
Type: cell-based, human
Parameters: key to Average Magnitude of Response: spot forming cells (SFC) per 10^6 PBMC; Response Rate per Subject: unit not given here
Method: PBMC Isolation and Cell Cultures: PBMC (peripheral blood mononuclear cells) were isolated from 450 mL (one unit) of blood by density gradient centrifugation as described and cryopreserved. For in vitro expansion of PBMC for peptide screening, cells were cultured in RPMI1640 (Omega Scientific)+5% human AB serum (Gemini Bioscience), GlutaMAX (Gibco), and penicillin/streptomycin (Omega Scientific) at 2×10^6 per mL, stimulated with 10 ug/mL Bla g extract (Greer), and incubated at 37° C. in 5% CO2. Every three days, IL-2 and IL-7 (10 U/mL) were added to the cultures. Cells were harvested for peptide screening at day 14.
ELISPOT Assays: Production of IFNγ, IL-5, IL-17, IL-10, and IL-21 (as representative of TH1, TH2, TH17, TR1, and […], respectively) in response to peptide stimulation was measured by ELISPOT as described previously. […] In brief, 1×10^5 cells per well were incubated with peptide, peptide pool, or Bla g extract (10, 5, and 10 ug/ml, respectively) on anti-lymphokine antibody coated ELISPOT plates (Millipore #MSIPS4510) for 22 hours. Subsequently, secondary anti-lymphokine antibodies were added and incubated for 2 hours, washed, and avidin-peroxidase complex added for 1 hour. Plates were washed and spots developed with 3-amino-9-ethylcarbazole (Sigma #A6926) and Vector Blue (Vector #SK-5300) for IFNγ/IL-5 and IL-10/IL-17 dual plates or TMB (Sigma #T0565) for single IL-21. Criteria for peptide pool positivity were at least 100 spot forming cells (SFC) per 10^6 PBMC, p<0.05, and stimulation index≥2. Criteria for peptide positivity were identical except with a threshold of 20 SFCs.
We synthetized overlapping peptide sets of 15 amino acids in length overlapping by 10 residues and covering the entire sequence of known Bla g Allergens, i.e. Bla g 1-7, 9 and 11, referred from hereafter collectively as BLAGA. A total of 809 BLAGA peptides were arranged in pools, encompassing on average 20 peptides.
To assess T cell reactivity, we utilized a strategy applied to the definition of epitopes from various allergen sources^15,16 utilizing in vitro stimulation with allergen extracts. Here, PBMC from each subject were stimulated in vitro with Bla g extract. After 14 days, pools of overlapping 15-mer peptides from the BLAGA were tested for responses, and positive pools deconvoluted to identify the specific epitopes. As readout, we utilized ELISPOT assays specific for IL-5, IFNγ, IL-10, IL-17 and IL-21, chosen as representative of TH2, TH1, TR1, TH17 and TFH reactivity, respectively.

Sequence | Average Magnitude of Response | Response Rate per Subject
AAIANYHYDADENSK | 26.2 | 11.4
AAVAYLQSDEFETIV | 3.2 | 1.4
AGTWSALNSIQQFIS | 15.7 | 7.1
AKGMMHMIKKGANGS | 18.7 | 2.9
AKRFAKWALPLYNKP | 12.2 | 1.4
ALNSIQQFISSEMVE | 4.4 | 4.3
ALREKVLGLPAIKAW (listed as Blattella germanica) | 77.1 | 12.9
AQIQVVIHLDEQYIY | 4.6 | 5.7
ARYFLERLSNDLPDV | 3.5 | 2.9
ATDYENYAIVEGCPA | 32.7 | 1.4
AVLALCATDTLANED | 3.0 | 2.9
CATDTLANEDCFRHE | 3.2 | 2.9
CPTNLGTTVRASVRI | 11.2 | 4.3
DCGVAGFRVDAAKHM | 3.9 | 2.9
DENSKQKKWDPLKKE | 10.3 | 5.7
DKKVYRVFESTVTGR | 4.4 | 2.9
DPSIHVLKMVAELTH | 3.4 | 1.4
DRKMYWQFKMDKIQI (listed as Blattella germanica) | 78.8 | 5.7
DRRGEMFYYTRQQLY | 3.5 | 1.4
DVLDIGGLKVQKQTF | 3.5 | 2.9
DVLQWQTIPYTTIHN | 15.9 | 2.9

Sequence | Average Magnitude of Response | Response Rate per Subject
EAGFAKLAASDSKSL | 16.0 | 7.1
EIDGKQTHQSVAISR | 3.8 | 4.3
EMIQHYTLDQVNQHK | 3.5 | 2.9
ERYQLVSYNLNSRSG | 3.4 | 1.4
EVVKANGGYLAAGKL | 4.6 | 5.7
FGSTLLDVIQSGLEN | 26.1 | 8.6
FLLSYGEKDFEDYRF | 8.5 | 8.6
FQINLDFKNHNGFIR | 52.0 | 1.4
FRKFSNNFEFSYLLG | 3.3 | 1.4
FRPWWERYQLVSYNL | 10.8 | 4.3
FSQMYHAQLAFSTAF | 3.4 | 2.9
FYTEFDMENNRVGFA | 11.3 | 2.9
GASILTYKTSKLYKM | 19.3 | 7.1
GEKDFEDYRFQEGDW | 12.0 | 8.6
GEPIRFLLSYGEKDF | 3.3 | 2.9
GHSHFVSDVVLSSDG | 9.6 | 2.9
GIRIYVDVVLNQMSG (listed as Blattella germanica) | 62.5 | 4.3
GKDYILRVSQLGHTV | 3.4 | 4.3
GQEYTFYVIVTPYAK | 3.2 | 2.9
GVTPVFYNMVKQGLV | 20.8 | 1.4
HDDRLGFLTFCPTNL (listed as Blattella germanica) | 83.1 | 7.1

Sequence | Average Magnitude of Response | Response Rate per Subject
HGRTFSSLFQVANQY | 8.4 | 4.3
HHQRLFMVQSLERVV | 3.1 | 2.9
HMAKEDLVANQPNLK (listed as Blattella germanica) | 68.8 | 4.3
HTKLSSSSSITLTLP | 6.2 | 5.7
HYQFDSIHKFEFASK | 24.4 | 1.4
IAGPVSEVTALNRQI | 3.3 | 2.9
IDDIIAILPVDDLYA | 6.6 | 2.9
IHENLIVTSPFRPWW | 9.3 | 2.9
IQGKFGLDATAVGDE | 6.9 | 1.4
IRFSVRRFHPKLGDK | 5.8 | 2.9
IRGRTKFEGNKFTID (listed as Blattella germanica) | 75.5 | 5.7
IRHAILAAGDLYSRR | 5.5 | 1.4
ISDFRAAIANYHYDA | 216.2 | 18.6
IVINNAGILNDEKWE | 10.8 | 4.3
KAAVHLLVAVKASKE | 4.4 | 1.4
KAHSMRNSASMDLSS | 16.4 | 4.3
KAIEEDLKHFNLKYE | 5.7 | 2.9
KAIFIKCDVTNIPEF | 9.3 | 7.1
KALQNAESEVAALNR | 6.0 | 1.4
KCHLTNIACLLHNKY | 22.6 | 5.7
KDDWENLEIDMIVDT | 8.4 | 2.9

Sequence | Average Magnitude of Response | Response Rate per Subject
KEFANVVRVVRHTSK | 3.3 | 2.9
KELVEKYGKGKAIFI | 3.4 | 2.9
KFEGNKFTIDYNDKG | 14.2 | 4.3
KFTIDYNDKGKAFSA | 32.0 | 11.4
KIGEYKNMIAEGIID | 6.2 | 1.4
KKLQFTYSESLDLDD | 4.2 | 2.9
KLAASDSKSLLRKYL | 43.8 | 7.1
KLGDKEMIQHYTLDQ | 5.0 | 1.4
KLYKMAVAFMLAYPY | 15.8 | 7.1
KNMTYVNTSLVLAFS | 8.4 | 2.9
KNRTTIRGRTKFEGN (listed as Blattella germanica) | 81.7 | 2.9
KQLKVSQIMEAARKL | 4.2 | 4.3
KTPVLEIDGKQTHQS (listed as Blattella germanica) | 57.0 | 14.3
KTPVLSVNATVVRLQ | 3.2 | 1.4
KVFLKNYLVGNAQFK | 6.4 | 1.4
KVIDLLLSLYLDQNE | 3.6 | 7.1
LDYLNHMAKEDLVAN | 13.0 | 10.0
LGHTVCLSGFMGIDL | 3.2 | 2.9
LIPVDQIIAIATDYL | 9.8 | 1.4
